The source made the active and inactive calls. No cut-off for these calls is given here.

The values that follow come from ChEMBL document CHEMBL4334501, “A drug repurposing screening reveals a novel epigenetic activity of hydroxychloroquine” (Eur J Med Chem, 2019).

Experiment [1] deals with Polycomb protein EED (Homo sapiens) (UniProt O75530). Description: Inhibition of EED subunit of PRC2 complex in human MM1S cells assessed as reduction in H3K27me3 expression after 24 hrs by Western blot analysis. Format: cell-based. In general terms: In western blotting, separated proteins are transferred to a membrane and probed.
For experiment [2] the target is unchanged. Description: Inhibition of HA-tagged human EED subunit of PRC2 complex expressed in human MM1S cells assessed as reduction in transfected EED cDNA vector-induced H3K27me3 overexpression at 10 uM after 24 hrs by Western blot analysis. In kind it is cell-based.

Polycomb protein EED (Homo sapiens), sequence (O75530 2-441 limits assumed): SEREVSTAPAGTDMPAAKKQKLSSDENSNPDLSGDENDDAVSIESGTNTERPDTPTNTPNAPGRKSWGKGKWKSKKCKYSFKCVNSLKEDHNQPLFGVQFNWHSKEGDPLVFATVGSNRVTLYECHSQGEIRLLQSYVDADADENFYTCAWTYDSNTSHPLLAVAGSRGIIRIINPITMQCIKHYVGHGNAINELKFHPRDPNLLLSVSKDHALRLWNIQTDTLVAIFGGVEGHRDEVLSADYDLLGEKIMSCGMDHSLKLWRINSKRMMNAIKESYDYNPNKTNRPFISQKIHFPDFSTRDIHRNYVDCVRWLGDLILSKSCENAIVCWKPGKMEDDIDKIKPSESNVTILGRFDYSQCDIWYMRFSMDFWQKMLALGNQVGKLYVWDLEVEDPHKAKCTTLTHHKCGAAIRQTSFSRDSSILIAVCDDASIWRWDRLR

Turning to `CCN(CCO)CCCC(C)Nc1ccnc2cc(Cl)ccc12` (configuration not stated), the inhibition result in experiment [1] is “Dose-dependent effect”. Further, the inhibition entry in experiment [2] was “Active”.
